This note sets out measurements from paper PMC9276943 (Molecular Plant Pathology, 2022).

The structures appear in SMILES notation.

This test concerns the target T1, truncated CsrD, EAL domain only (E. amylovora Ea1189) (Erwinia amylovora, UniProt A0ABX7MI01).
T1 sequence (A0ABX7MI01 403-633): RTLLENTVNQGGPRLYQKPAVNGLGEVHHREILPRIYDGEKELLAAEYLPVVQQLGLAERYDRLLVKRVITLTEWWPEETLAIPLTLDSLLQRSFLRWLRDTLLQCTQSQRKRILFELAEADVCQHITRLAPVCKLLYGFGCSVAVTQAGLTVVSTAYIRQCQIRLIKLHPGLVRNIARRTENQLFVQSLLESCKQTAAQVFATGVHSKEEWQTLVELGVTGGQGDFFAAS
As to the kind of experiment: streptavidin pull-down with anti-His immunoblot. The conditions noted are these: labelled compound (biotinylated c-di-GMP, 100 µM); 1.7 µM protein. Format: binding.

For the compound `Nc1nc2c(ncn2[C@@H]2O[C@@H]3COP(=O)(O)O[C@H]4[C@@H](O)[C@H](n5cnc6c(=O)[nH]c(N)nc65)O[C@@H]4COP(=O)(O)O[C@H]3[C@H]2O)c(=O)[nH]1` [c-di-GMP], the “streptavidin pull-down with anti-His immunoblot” value is given as “truncated version of CsrD that consisted of only the WT EAL domain exhibited binding”.
